From the NIST ThermoML archive (doi:10.1016/j.jct.2014.06.004)
± gives the expanded uncertainty stated by the source.

How the values were obtained:
[1] = refractive index (Na D-line) (dimensionless); xn = mol fraction of the nth substance listed; settings: 100 kPa, Liquid, Standard Abbe refractometry
[2] = xn = mol fraction of the nth substance listed; settings: 100 kPa, Liquid; for speed of sound: Frequency=3 MHz, Sing-around technique in a fixed-path interferometer; for mass density: Vibrating tube method

CCCCCCC(=O)O [heptanoic acid] + CCC(=O)O
Settings | mass density, [2] [kg/m3] | refractive index, [1] | speed of sound, [2] [m/s]
293.15 K, x1 = 0.0539 | 985.8 ± 0.3 | 1.39 ± 0.0005 | 1176 ± 2
293.15 K, x1 = 0.1023 | 979.3 ± 0.3 | 1.3929 ± 0.0005 | 1185 ± 2
293.15 K, x1 = 0.2037 | 967.5 ± 0.3 | 1.3982 ± 0.0005 | 1202 ± 2
293.15 K, x1 = 0.3021 | 957.8 ± 0.3 | 1.4026 ± 0.0005 | 1217 ± 2
293.15 K, x1 = 0.4007 | 949.6 ± 0.3 | 1.4066 ± 0.0005 | 1231 ± 2
293.15 K, x1 = 0.5015 | 942.3 ± 0.3 | 1.4102 ± 0.0005 | 1244 ± 2
293.15 K, x1 = 0.6051 | 935.9 ± 0.3 | 1.4135 ± 0.0005 | 1257 ± 2
293.15 K, x1 = 0.7009 | 930.7 ± 0.3 | 1.4162 ± 0.0005 | 1267 ± 2
293.15 K, x1 = 0.8016 | 925.8 ± 0.3 | 1.4188 ± 0.0005 | 1277 ± 2
293.15 K, x1 = 0.9002 | 921.5 ± 0.3 | 1.4212 ± 0.0005 | 1287 ± 2
293.15 K, x1 = 0.95 | 919.5 ± 0.3 | 1.4223 ± 0.0005 | 1291 ± 2
293.15 K, x1 = 1 | 917.7 ± 0.3 | 1.4234 ± 0.0005 | 1295 ± 2
298.15 K, x1 = 0.0539 | 980.5 ± 0.3 | 1.388 ± 0.0005 | 1158 ± 2
298.15 K, x1 = 0.1023 | 974.2 ± 0.3 | 1.3909 ± 0.0005 | 1166 ± 2
298.15 K, x1 = 0.2037 | 962.5 ± 0.3 | 1.3961 ± 0.0005 | 1184 ± 2
298.15 K, x1 = 0.3021 | 953 ± 0.3 | 1.4006 ± 0.0005 | 1199 ± 2
298.15 K, x1 = 0.4007 | 944.9 ± 0.3 | 1.4045 ± 0.0005 | 1213 ± 2
298.15 K, x1 = 0.5015 | 937.7 ± 0.3 | 1.4081 ± 0.0005 | 1226 ± 2
298.15 K, x1 = 0.6051 | 931.1 ± 0.3 | 1.4114 ± 0.0005 | 1239 ± 2
298.15 K, x1 = 0.7009 | 926.3 ± 0.3 | 1.4142 ± 0.0005 | 1249 ± 2
298.15 K, x1 = 0.8016 | 921.4 ± 0.3 | 1.4169 ± 0.0005 | 1260 ± 2
298.15 K, x1 = 0.9002 | 917.2 ± 0.3 | 1.4192 ± 0.0005 | 1269 ± 2
298.15 K, x1 = 0.95 | 915.3 ± 0.3 | 1.4203 ± 0.0005 | 1273 ± 2
298.15 K, x1 = 1 | 913.5 ± 0.3 | 1.4214 ± 0.0005 | 1278 ± 2
303.15 K, x1 = 0.0539 | 975.2 ± 0.3 | 1.3859 ± 0.0005 | 1139 ± 2
303.15 K, x1 = 0.1023 | 969 ± 0.3 | 1.3888 ± 0.0005 | 1148 ± 2
303.15 K, x1 = 0.2037 | 957.5 ± 0.3 | 1.394 ± 0.0005 | 1165 ± 2
303.15 K, x1 = 0.3021 | 948.1 ± 0.3 | 1.3985 ± 0.0005 | 1180 ± 2
303.15 K, x1 = 0.4007 | 940.2 ± 0.3 | 1.4024 ± 0.0005 | 1195 ± 2
303.15 K, x1 = 0.5015 | 933.2 ± 0.3 | 1.406 ± 0.0005 | 1208 ± 2
303.15 K, x1 = 0.6051 | 926.9 ± 0.3 | 1.4094 ± 0.0005 | 1220 ± 2
303.15 K, x1 = 0.7009 | 921.9 ± 0.3 | 1.4121 ± 0.0005 | 1231 ± 2
303.15 K, x1 = 0.8016 | 917.1 ± 0.3 | 1.4148 ± 0.0005 | 1242 ± 2
303.15 K, x1 = 0.9002 | 913 ± 0.3 | 1.4171 ± 0.0005 | 1251 ± 2
303.15 K, x1 = 0.95 | 911.1 ± 0.3 | 1.4183 ± 0.0005 | 1256 ± 2
303.15 K, x1 = 1 | 909.3 ± 0.3 | 1.4194 ± 0.0005 | 1260 ± 2
308.15 K, x1 = 0.0539 | 970 ± 0.3 | 1.3838 ± 0.0005 | 1120 ± 2
308.15 K, x1 = 0.1023 | 963.8 ± 0.3 | 1.3866 ± 0.0005 | 1129 ± 2
308.15 K, x1 = 0.2037 | 952.5 ± 0.3 | 1.3919 ± 0.0005 | 1146 ± 2
308.15 K, x1 = 0.3021 | 943.3 ± 0.3 | 1.3963 ± 0.0005 | 1162 ± 2
308.15 K, x1 = 0.4007 | 935.5 ± 0.3 | 1.4003 ± 0.0005 | 1176 ± 2
308.15 K, x1 = 0.5015 | 928.6 ± 0.3 | 1.4039 ± 0.0005 | 1190 ± 2
308.15 K, x1 = 0.6051 | 922.4 ± 0.3 | 1.4073 ± 0.0005 | 1202 ± 2
308.15 K, x1 = 0.7009 | 917.5 ± 0.3 | 1.4101 ± 0.0005 | 1213 ± 2
308.15 K, x1 = 0.8016 | 912.8 ± 0.3 | 1.4127 ± 0.0005 | 1224 ± 2
308.15 K, x1 = 0.9002 | 908.8 ± 0.3 | 1.4151 ± 0.0005 | 1233 ± 2
308.15 K, x1 = 0.95 | 906.9 ± 0.3 | 1.4162 ± 0.0005 | 1238 ± 2
308.15 K, x1 = 1 | 905.1 ± 0.3 | 1.4173 ± 0.0005 | 1242 ± 2
313.15 K, x1 = 0.0539 | 964.7 ± 0.3 | 1.3816 ± 0.0005 | 1101 ± 2
313.15 K, x1 = 0.1023 | 958.6 ± 0.3 | 1.3845 ± 0.0005 | 1110 ± 2
313.15 K, x1 = 0.2037 | 947.5 ± 0.3 | 1.3897 ± 0.0005 | 1128 ± 2
313.15 K, x1 = 0.3021 | 938.4 ± 0.3 | 1.3942 ± 0.0005 | 1144 ± 2
313.15 K, x1 = 0.4007 | 930.8 ± 0.3 | 1.3982 ± 0.0005 | 1158 ± 2
313.15 K, x1 = 0.5015 | 924 ± 0.3 | 1.4018 ± 0.0005 | 1172 ± 2
313.15 K, x1 = 0.6051 | 918 ± 0.3 | 1.4052 ± 0.0005 | 1185 ± 2
313.15 K, x1 = 0.7009 | 913.1 ± 0.3 | 1.408 ± 0.0005 | 1196 ± 2
313.15 K, x1 = 0.8016 | 908.5 ± 0.3 | 1.4107 ± 0.0005 | 1206 ± 2
313.15 K, x1 = 0.9002 | 904.5 ± 0.3 | 1.4131 ± 0.0005 | 1216 ± 2
313.15 K, x1 = 0.95 | 902.7 ± 0.3 | 1.4142 ± 0.0005 | 1220 ± 2
313.15 K, x1 = 1 | 900.9 ± 0.3 | 1.4153 ± 0.0005 | 1225 ± 2
